SMILES strings stand for the structures. Where two headings read alike, the source gives them in different places.

Here are results for two compounds from patent US20150087722A1, “TREATMENT FOR BREAST TUMOR CELL METASTASIS” (China Medical University, priority 2012, published 2015).

Assay [1] relates to Rat Skin Tumor Cell (B16F1 cell strain). As to the kind of experiment: MTT cell viability assay. The assay is classed as cell-based. The settings on record: Mus musculus, B16-F1.
A further assay relates to breast tumor cells MCF-7. As to the kind of experiment: MTT cell viability assay. Type of assay: cell-based. The settings on record: Homo sapiens, MCF7. The procedure:
The breast tumor cells (MDA-MB-231, MDA-MB-435, MDA-MB-453, MDA-MB-468 and MCF-7) were commercially obtained from the bioresource collection and research center (BCRC), and were cultured in a 10% FBS-DMEM culture medium (i.e., a DMEM culture medium including 10% fetal bovine serum (FBS)). The human breast cell MCF-10A was cultured in a 5% FBS-DMEM culture medium (including F12, insulin, hydrocortisol and epidermal growth factor). An environment of 5% CO2 was kept in the incubator at a constant temperature of 37° C. When a certain number of cells were generated in culture, the culture medium was removed after being centrifuged for 10 min at a rate of 900 rpm. The culture medium was replaced in 24 h before the experiment, and the number of cells was counted by a hemocytometer.
The cell viability was determined by a method of […] (MTT assay). The test method for assaying cell viability refers to steps provided by Parada-Turska et al.
The breast tumor cells MDA-MB-231 were inoculated in a 24-well plate (2.5×10^5 cells/well), and the next day after cells were adhered to the wall of the plate, the cells were washed with PBS. 1% FBS-DMEM culture medium was then added so as to synchronize cells. The next day compound II having different concentrations were added into the wells, and the cells were subsequently cultured in an atmosphere of 5% CO2 at 37° C. for 24 h. The cells were washed with PBS once, and 400 μl MTT agent was added in each well so as to react for 4 h. Then 400 μl 10% SDS was added in each well so as to react for 12 h. 200 μl supernatant was taken from the well and then added into a 96-well microplate, so as to measure the absorbance at 570 nm.
(In general: Formazan colour is commonly taken as a measure of viable cells.)

The subject of assay [2] is PI3K and Akt in breast tumor cells. As to the kind of experiment: western blotting of PI3K and Akt and phosphorylation. Type of assay: cell-based, human. The settings on record: 2 μM, 0-120 min. The procedure:
The steps of western blotting include: washing cells with PBS twice at 4° C.; adding a lysis buffer and rubbing the cells by a rubbr policeman so as to lyse cells; putting the lysed cell solution into a 1.5 ml microcentrifuge tube and shaking for 1 min; centrifuging at 12000 rpm for 10 min and taking the supernatant; measuring concentration of the protein through a Bio-Rad protein assay kit; and storing the remained extracted protein solution at −70° C.; taking 100 μg protein solution and adding a SDS/protein loading buffer having the same volume, where the SDS/protein loading buffer has a concentration two times larger than the protein solution; boiling the mixture of the protein solution and the SDS/protein loading buffer at 100° C. for 10 min; cooling and loading the protein samples in each hole of gel; adjusting the voltage to 100 V and running the protein samples on the gel until the tracking dye in the sample buffer reaches the bottom of the gel; and subsequently transferring the protein from the gel using electrophoresis. […] Then luminescence image equipment was used, where the PVDF was placed onto a black metal plate by a plastic pincer and the face including protein was upwards, a 1:1 mixed Chemiluminesent Substrate was added into the membrane and the exposure time depends on the fluorescence intensity of antibodies. […]
(In general: Immunoblotting shows a protein as a band on a membrane.)

Assay [3] has as its system Ovarian Tumor Cell (SKOV3 cell strain). As to the kind of experiment: MTT cell viability assay. The settings on record: Homo sapiens, SK-OV-3. The assay is classed as cell-based.
For assay [4], the system named is breast tumor cells MDA-MB-231. Nature of the assay: transwell invasion assay. The assay is classed as cell-based, human. The settings on record: 0.5, 1 and 2 μM, 20 h, with increasing concentration. Here is the method: (§1) In the transwell invasion assay, the Matrigel which was a component of ECM was used to imitate the environment between cells. When the cells in a BD Matrigel™ Invasion Chamber were stimulated by growth factors in the Matrigel matrix, the cells secreted some matrix proteolytic enzymes to degrade the Matrigel, so as to facilitate invasion of cells. If the cells had strong invasion capability, the cells can be observed on the filter membrane after staining. In FIG. 15, 800 μl 10% FBS-DMEM was added into the transwell as a chemoattractant, and then 500 μl cells (1×10^5) were planted in the transwell. DMEM culture medium included no FBS and the compound II of 0.5, 1 and 2 μM. The breast tumor cells MDA-MB-231 were then cultured at an atmosphere of 5% CO2 in an incubator at 37° C. for 20 h. Subsequently the cells were stained with Giemsa for 15 min, and observed by taking photographs at a 200× field of an optical microscope. In the test each time each group was represented by a medium value of three repeat transwells. In FIGS. 16A, 16B and 17, the breast tumor cells MDA-MB-231 were replaced by the breast tumor cells MDA-MB-468, the breast tumor cells MDA-MB-435 and the human normal breast cells MCF-10A, respectively. Furthermore, in FIGS. 16A and 16B, the compound II was replaced by the compound I of 0.5, 1 and 2 μM and the compound I of 2.5, 5 and 7.5 μM. In FIG. 17, the compound II was replaced by compound I of 2 μM, TNF-α/TGF-β of 10 ng/ml, and compound I of 2 μM and TNF-α/TGF-β of 10 ng/ml. In the quantitative method of cell migration test, steps included randomly choosing 9 fields at the lower surface of the transwell membrane, counting the total cell number in each field; regarding the medium value of cell number in the 9 fields as an index of chemotaxis migration of breast tumor cells in each transwell, and each group of each test was represented by the medium value of 3 repeat transwells.

Assay [5] deals with breast tumor cells MDA-MB-468. Nature of the assay: transwell invasion assay. The assay is classed as cell-based, human. The settings on record: 0.5, 1 and 2 μM, with increasing concentration. Here is the method:
as §1

Assay [6] relates to breast tumor cells MDA-MB-435. Nature of the assay: transwell invasion assay. Type of assay: cell-based, human. The settings on record: 2.5, 5 and 7.5 μM, with increasing concentration. Here is the method:
as §1

The IC50 is the point on the concentration scale where inhibition reaches its midpoint. For the compound `COC1=C(OC)C(=O)C(C)=C(C)C1=O` [compound II], the IC50 is 12.8 µM in assay [1]; about 30 µM with breast tumor cells MCF-7 (0-40 μM for 24 h, FIG. 1A, read-out: IC50 for inhibiting the MCF-7); 27.7 µM with breast tumor cells MCF-7 (viability, MCF-7 cell strain, Table 1, read-out: IC50); 15.3 µM in assay [3]. For the same compound, the “phosphorylation of PI3K and Akt” value in assay [2] is recorded as “probably inhibited”. Besides, the “protein expression of PI3K and Akt” value in assay [2] is given as “not affected”. Moreover, the “migration of breast tumor cells MDA-MB-231 (transwell)” value in assay [4] is given as “significantly reduced”.

Turning to `COC1=C(OC)C(=O)C(C)=CC1=O` [compound I], the “migration of breast tumor cells MDA-MB-468 (transwell)” value in assay [5] is reported as “significantly reduced”. The “migration of breast tumor cells MDA-MB-435 (transwell)” value in assay [6] is recorded as “also significantly reduced”.
